Measured values taken from patent US20240189278A1, “NOVEL COMPOUNDS AND METHODS FOR INCREASING KLOTHO GENE EXPRESSION” (Klotho Therapeutics, Inc., priority 2017, published 2024).

Legend:
Format in all cases: in vivo, mouse
aged mice = test: Pulse wave velocity (arterial stiffness) in aged mice; details: 10 mg/kg/day IP, 2 weeks treatment
Description: (§1) Animal study protocols. This example was performed according to the guide lines of the National Institute of Health on the care and use of laboratory animals and approved by the institutional Animal Care and Use Committee of University of Oklahoma Health Science Center. AU mice were housed in cages at room temperature (2S±PC) and were provided with Purina laboratory chow No 5001) and tap Water and lithium. 6 adult mice (12 months) and 20 old mice (24-26 months) mice were next in this study. The old (aged) mice were randomly divided into three subgroups and each group had 6 or 7 mice. […] The third group received no treatment Blood pressure was measured before and after treatment with the active agent at 1 week and 2 week. Pulse wave velocity (PWV) was measured after 2 weeks treatment with active agent all animals were sacrificed and perfused transcardially with PBS under deep anesthesia (ketamine xylazine, 90/10 mg, IP). […]
Measurement of Pulse Wave Velocity: Aortic PWV was measured as described previously. […] Velocities were measured with 6-mm crystal […] Doppler probes (Indus Instruments, Webster, TX) at the transverse aortic arch and 3.5 cm distal in the abdominal aorta and collected using Doppler signal processing workstation (Indus instruments). […]

DNA demethylase = DNA demethylase activity in aged mice; details: 2 weeks treatment
Description: as §1
(§2) Measurement of DNA Demethylase and DNA Methylation force Activity. The DNA demethylase and DNA methyltransferase activity was measured by using DNA demethylase activity qualification kit (Abeam˜Cambridge, MA) and methyltransferase coloritnetxic assay kit (Cayman Chemical Company, Ann Arbor, Michigan). […] The absorbance was read at […] for DNA methylene activity assay and 510 nm for DNA methyltransferase activity using BioTeck Multi-Mole Microplate Readers.

DNA methyltransferase = DNA methyltransferase activity in aged mice; details: 2 weeks treatment
Description: as §1, §2

Klotho gene = test: Methylation analyses of Klotho gene (methylation-specific PCR); details: kidney of aged mice, 2 weeks treatment
Description: (§3) Animal study protocols. This example was performed according to the guide lines of the National Institute of Health on the care and use of laboratory animals and approved by the institutional Animal Care and Use Committee of University of Oklahoma Health Science Center. AU mice were housed in cages at room temperature (2S±PC) and were provided with Purina laboratory chow No 5001) and tap Water and lithium. 6 adult mice (12 months) and 20 old mice (24-26 months) mice were next in this study. The old (aged) mice were randomly divided into three subgroups and each group had 6 or 7 mice. One subgroup received compound H (10 mg/kg/day1, IP, Enamine LLC, Monmouth Jct., NJ) and one group received an equal volume of DMSO (dimethyl sulfoxide, 5%) and served as a control. The third group received no treatment Blood pressure was measured before and after treatment with the active agent at 1 week and 2 week. Pulse wave velocity (PWV) was measured after 2 weeks treatment with active agent all animals were sacrificed and perfused transcardially with PBS under deep anesthesia (ketamine xylazine, 90/10 mg, IP). […]
Methylation Analyses of Klotho Gene: The methylation status of CpG islands of mice Klotho gene was analyzed using methylation-specific PCR (MSP) and bisulfite sequencing. […] The methylation index was calculated as (band intensity of MSP with methylated primers)/(band intensity of inputted control). […]

full-length Klotho = test: Western blot of full-length Klotho in kidney of aged mice; details: kidney of 24-26 month-old mice
collagen-1 = test: Collagen in aortas of aged mice (staining and western blot)
Description: as §1
(§4) Histological and Immunohistochemical Staining: Thoracic aortas were quickly excised and placed in cold (4′T) physiological saline solution. […] Aorta rings were post-fixed in 4% paraformaldehyde, embedded in paraffin and sectioned at […] thickness, Collagen was quantified by Masson' s trichrome staining as described previously. […] Blue-stained collagen areas were quantified with ImageJ (NIH, Bethesda, USA) film 4-5 regions per section. […]

elastin = test: Elastin in aortas of aged mice (immunostaining and western blot)
Description: as §1, §4

MMP2 = test: Western blot of MMP2, aortas of aged mice
Description: as §3
(§5) Western Blot Analysis: Protein samples from the thoracic aorta were prepared in Lysis buffer as described previously. […] Protein abundance on western blots was quantified densitometry using Image lab software (Bio-Rad, Hercules, CA).

TGF-β1 = test: Western blot of TGF-β1, aortas of aged mice
Description: as §3, §5

AMPK = test: Western blot of AMPK and p-AMPK, aortas of aged mice
Description: Animal study protocols. This example was performed according to the guide lines of the National Institute of Health on the care and use of laboratory animals and approved by the institutional Animal Care and Use Committee of University of Oklahoma Health Science Center. AU mice were housed in cages at room temperature (2S±PC) and were provided with Purina laboratory chow No 5001) and tap Water and lithium. 6 adult mice (12 months) and 20 old mice (24-26 months) mice were next in this study. The old (aged) mice were randomly divided into three subgroups and each group had 6 or 7 mice. One subgroup received compound H (10 mg/kg/day1, IP, Enamine LLC, Monmouth Jct., NJ) and one group received an equal volume of DMSO (dimethyl sulfoxide, 5%) and served as a control. The third group received no treatment Blood pressure was measured before and after treatment with the active agent at 1 week and 2 week. Pulse wave velocity (PWV) was measured after 2 weeks treatment with active agent all animals were sacrificed and perfused transcardially with PBS under deep anesthesia (ketamine xylazine, 90/10 mg, IP). The aortas were then quickly removed, washed and cut into pieces for subsequent analyses.
Western Blot Analysis: Protein samples from the thoracic aorta were prepared in Lysis buffer as described previously. The proteins ([…] were resolved by SOS-PAGE and transferred to a nitrocellulose membrane (Bio-Rad). The membrane was then incubated overnight (4° C.) with a primary antibody against collagen-1-elastin. M1′v1P2; MMP9, ALP (Abeam1 1:1000), TGF-1, TGF˜N3 (Santa Cmz, 1:100). RUX2, or aNTulmliu (Cell Signaling. 1:1000). Goat autimouse or goat anti rabbit horseradish peroxidase (1:2000 . . . 1:5,000; Santa Cruz Biotechnology) was used as a secondary antibody find incubated for 1 hour at room temperature. Specific proteins were detected by chemiluminescent methods using Amersham™ western blotting detection reagents (GE Healthcare, UK). Protein abundance on western blots was quantified densitometry using Image lab software (Bio-Rad, Hercules, CA).

LC3 = test: Western blot of LC3 in aortas, hearts and kidneys of old mice

- DNA demethylase activity (DNA demethylase): increased
- DNA methyltransferase activity (DNA methyltransferase): did not affect
SMILES: O=C(Nc1ccccc1Cl)c1c[nH]c2ccccc12 [active agent, N-(2-chlorophenyl)-Ul-indde-3-carboxamide]
- Pulse wave velocity (PWV) (aged mice): decreased
- Methylation of Klotho gene (Klotho gene): inhibited
- Full-length Klotho expression (full-length Klotho): did not affect
- Collagen production (collagen-1): decreased
- Elastin production (elastin): increased
- MMP2 protein expression (MMP2): decreased
- TGF-β1 expression (TGF-β1): decreased
- AMPK activity (AMPK; aortas of aged mice): increased
- AMPK expression (AMPK; old mice, western blot): increased
- p-AMPK expression (AMPK; old mice, western blot): increased
- LC3 expression (LC3; aortas of old mice): did not affect
- LC3 expression (LC3; hearts of old mice): did not affect
- LC3 expression (LC3; kidneys of old mice): did not affect
